In US20260262643A1, “HERBICIDAL BENZOXAZINES” (FMC CORPORATION, priority 2022, published 2026):

How the values were obtained:
[1] = test system: sedge, umbrella; assay: Test B flooded paddy test; format: in vivo, Cyperus difformis; details: 250 g ai/ha, Flood, 13 days, 0 to 100 scale (0 no effect, 100 complete control)
How it was run: (§1)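 Each species was raised to the 2-leaf stage. At treatment, each pot received floodwater 3 cm deep, with the chemical delivered into the water. Greenhouse holding followed for 13 days, then percent control was estimated visually versus untreated pots.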

[2] = test system: kochia; assay: Test A preemergence; format: in vivo, Bassia scoparia
How it was run: (§2)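 Plants were grown in loam and sand and treated preemergence or postemergence (one- to two-leaf stage, 2–10 cm) with compound in solvent plus surfactant. Response was scored against untreated controls after 10 greenhouse days, where 0 means no effect and 100 complete control.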

[3] = test system: foxtail, giant; assay: Test A preemergence; format: in vivo, Setaria faberi
How it was run: as §2

[4] = test system: goosegrass; assay: Test A preemergence; format: in vivo, Eleusine indica
How it was run: as §2

[5] = test system: corn; assay: Test A postemergence; format: in vivo, Zea mays
How it was run: as §2

[6] = test system: soybean; assay: Test A postemergence; format: in vivo, Glycine max
How it was run: as §2

[7] = test system: foxtail, giant; assay: Test A postemergence; format: in vivo, Setaria faberi
How it was run: as §2

[8] = test system: pigweed, palmer; assay: Test A preemergence; format: in vivo, Amaranthus palmeri
How it was run: as §2

[9] = test system: barnyardgrass; assay: Test B flooded paddy test; format: in vivo, Echinochloa crus-galli; details: 250 g ai/ha, Flood, 13 days, 0 to 100 scale (0 no effect, 100 complete control)
How it was run: as §1

[10] = test system: soybean; assay: Test A preemergence; format: in vivo, Glycine max
How it was run: as §2

[11] = test system: horseweed; assay: Test A postemergence; format: in vivo, Erigeron canadensis; details: postemergence, 10 days
How it was run: as §2

[12] = test system: ragweed; assay: Test A postemergence; format: in vivo, Ambrosia artemisiifolia
How it was run: as §2

[13] = test system: rice; assay: Test B flooded paddy test; format: in vivo, Oryza sativa; details: 250 g ai/ha, Flood, 13 days, 0 to 100 scale (0 no effect, 100 complete control)
How it was run: as §1

[14] = test system: oat, wild; assay: Test A postemergence; format: in vivo, Avena fatua
How it was run: as §2

[15] = test system: ragweed; assay: Test A preemergence; format: in vivo, Ambrosia artemisiifolia
How it was run: as §2

[16] = test system: corn; assay: Test A preemergence; format: in vivo, Zea mays
How it was run: as §2

[17] = test system: ryegrass, Italian; assay: Test A preemergence; format: in vivo, Lolium multiflorum
How it was run: as §2

[18] = test system: ryegrass, Italian; assay: Test A postemergence; format: in vivo, Lolium multiflorum
How it was run: as §2

[19] = test system: goosegrass; assay: Test A postemergence; format: in vivo, Eleusine indica
How it was run: as §2

[20] = test system: blackgrass; assay: Test A preemergence; format: in vivo, Alopecurus myosuroides
How it was run: as §2

[21] = test system: blackgrass; assay: Test A postemergence; format: in vivo, Alopecurus myosuroides
How it was run: as §2

[22] = test system: pigweed, palmer; assay: Test A postemergence; format: in vivo, Amaranthus palmeri
How it was run: as §2

[23] = test system: ducksalad; assay: Test B flooded paddy test; format: in vivo, Heteranthera limosa; details: 250 g ai/ha, Flood, 13 days, 0 to 100 scale (0 no effect, 100 complete control)
How it was run: as §1

[24] = test system: wheat; assay: Test A preemergence; format: in vivo, Triticum aestivum
How it was run: as §2

[25] = test system: wheat; assay: Test A postemergence; format: in vivo, Triticum aestivum
How it was run: as §2

[26] = test system: kochia; assay: Test A postemergence; format: in vivo, Bassia scoparia
How it was run: as §2

[27] = test system: oat, wild; assay: Test A preemergence; format: in vivo, Avena fatua
How it was run: as §2

[28] = test system: galium; assay: Test A postemergence; format: in vivo, Galium aparine
How it was run: as §2

[29] = 125 g ai/ha, visual injury after 10 days, 0 to 100 scale, 0 is no effect, 100 is complete control
[30] = 500 g ai/ha, 0 to 100 scale (0 no effect, 100 complete control), 10 days
[31] = 125 g ai/ha, postemergence, 10 days, 0 to 100 scale, 0 no effect, 100 complete control
[32] = 500 g ai/ha, postemergence, 10 days, visual injury, 0 to 100 scale (0 no effect, 100 complete control)
[33] = 125 g ai/ha, postemergence, 10 days, visual injury, 0 to 100 scale (0 no effect, 100 complete control)
[34] = 500 g ai/ha, Postemergence, 0 to 100 scale

Compound: Cc1cccc2c1O[C@@H](C)CN2C(=O)c1cccc(-n2cnc(C3CCCCC3)n2)c1 [Compound 82]
- Plant response rating, Sedge, Umbrella [1]: 0
- Plant response rating, Kochia [2, 29]: 0
- Plant response rating, Kochia [2, 30]: 0
- Plant response rating, Foxtail, Giant [3, 29]: 0
- Plant response rating, Foxtail, Giant [3, 30]: 20
- Plant response rating, Goosegrass [4, 29]: 20
- Plant response rating, Goosegrass [4, 30]: 90
- Corn plant response rating [5, 31]: 0
- Plant response rating, Corn [5, 32]: 10
- Soybean plant response rating [6, 31]: 90
- Plant response rating, Soybean [6, 32]: 90
- Foxtail, Giant plant response rating [7, 31]: 10
- Plant response rating, Foxtail, Giant [7, 32]: 10
- Plant response rating, Pigweed, Palmer [8, 29]: 0
- Plant response rating, Pigweed, Palmer [8, 30]: 40
- Plant response rating, Barnyardgrass [9]: 0
- Plant response rating, Soybean [10, 29]: 0
- Plant response rating, Soybean [10, 30]: 0
- Horseweed plant response rating ([11]; 125 g ai/ha, 0 to 100 scale, 0 no effect, 100 complete control): 0
- Plant response rating, Horseweed ([11]; 500 g ai/ha, visual injury, 0 to 100 scale (0 no effect, 100 complete control)): 0
- Ragweed plant response rating [12, 31]: 0
- Plant response rating, Ragweed [12, 32]: 50
- Plant response rating, Rice [13]: 0
- Oat, Wild plant response rating [14, 31]: 0
- Plant response rating, Oat, Wild [14, 32]: 0
- Plant response rating, Ragweed [15, 29]: 0
- Plant response rating, Ragweed [15, 30]: 0
- Plant response rating, Corn [16, 29]: 0
- Plant response rating, Corn [16, 30]: 10
- Plant response rating, Ryegrass, Italian [17, 29]: 60
- Plant response rating, Ryegrass, Italian [17, 30]: 100
- Ryegrass, Italian plant response rating [18, 31]: 0
- Plant response rating, Ryegrass, Italian [18, 32]: 30
- Goosegrass plant response rating [19, 31]: 0
- Plant response rating, Goosegrass [19, 32]: 20
- Plant response rating, Blackgrass [20, 29]: 0
- Plant response rating, Blackgrass [20, 30]: 0
- Blackgrass plant response rating [21, 31]: 0
- Plant response rating, Blackgrass [21, 32]: 10
- Pigweed, Palmer plant response rating [22, 31]: 0
- Plant response rating, Pigweed, Palmer [22, 32]: 50
- Plant response rating, Ducksalad [23]: 0
- Plant response rating, Wheat [24, 29]: 0
- Plant response rating, Wheat [24, 30]: 0
- Wheat plant response rating [25, 31]: 10
- Plant response rating, Wheat [25, 32]: 10
- Kochia plant response rating [26, 31]: 70
- Plant response rating, Kochia [26, 32]: 80
- Plant response rating, Oat, Wild [27, 29]: 10
- Plant response rating, Oat, Wild [27, 30]: 20

Compound: C[C@H]1CN(C(=O)c2cccc(-n3cncn3)c2)c2cccc(OC(F)(F)F)c2O1 [Compound 48]
- Plant response rating, Sedge, Umbrella [1]: 0
- Plant response rating, Kochia [2, 29]: 0
- Plant response rating, Kochia [2, 30]: 30
- Plant response rating, Foxtail, Giant [3, 29]: 20
- Plant response rating, Foxtail, Giant [3, 30]: 90
- Plant response rating, Goosegrass [4, 29]: 40
- Plant response rating, Goosegrass [4, 30]: 80
- Plant response rating, Corn [5, 33]: 10
- Plant response rating, Corn [5, 34]: 60
- Plant response rating, Soybean [6, 33]: 70
- Plant response rating, Soybean [6, 34]: 100
- Plant response rating, Foxtail, Giant [7, 33]: 20
- Plant response rating, Foxtail, Giant [7, 34]: 70
- Plant response rating, Pigweed, Palmer [8, 29]: 30
- Plant response rating, Pigweed, Palmer [8, 30]: 90
- Plant response rating, Barnyardgrass [9]: 0
- Plant response rating, Soybean [10, 29]: 0
- Plant response rating, Soybean [10, 30]: 0
- Plant response rating, Ragweed [12, 33]: 0
- Plant response rating, Ragweed [12, 34]: 20
- Plant response rating, Rice [13]: 0
- Plant response rating, Oat, Wild [14, 33]: 10
- Plant response rating, Oat, Wild [14, 34]: 30
- Plant response rating, Ragweed [15, 29]: 0
- Plant response rating, Ragweed [15, 30]: 0
- Plant response rating, Corn [16, 29]: 0
- Plant response rating, Corn [16, 30]: 30
- Plant response rating, Ryegrass, Italian [17, 29]: 70
- Plant response rating, Ryegrass, Italian [17, 30]: 100
- Plant response rating, Ryegrass, Italian [18, 33]: 20
- Plant response rating, Ryegrass, Italian [18, 34]: 40
- Plant response rating, Goosegrass [19, 33]: 0
- Plant response rating, Goosegrass [19, 34]: 40
- Plant response rating, Blackgrass [20, 29]: 20
- Plant response rating, Blackgrass [20, 30]: 80
- Plant response rating, Blackgrass [21, 33]: 0
- Plant response rating, Blackgrass [21, 34]: 30
- Plant response rating, Pigweed, Palmer [22, 33]: 30
- Plant response rating, Pigweed, Palmer [22, 34]: 70
- Plant response rating, Ducksalad [23]: 0
- Plant response rating, Wheat [24, 29]: 0
- Plant response rating, Wheat [24, 30]: 0
- Plant response rating, Wheat [25, 33]: 10
- Plant response rating, Wheat [25, 34]: 30
- Plant response rating, Kochia [26, 33]: 20
- Plant response rating, Kochia [26, 34]: 50
- Plant response rating, Galium [28, 33]: 40
- Plant response rating, Galium [28, 34]: 60
- Plant response rating, Oat, Wild [27, 29]: 20
- Plant response rating, Oat, Wild [27, 30]: 30
